Experimental findings from PubChem BioAssay (NCI) are described below.

Among the test systems are SNB-19 CNS; IGROV1 ovarian; T-47D breast; A498 renal; MDA-MB-231 breast; OVCAR-5 ovarian; MDA-MB-435.
What all share (assay): inhibition of tumour cell growth, NCI panel, 48 h

Molecules are shown by their SMILES.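 96-well plates; 48 h exposure; 5 concentrations. Endpoints by linear interpolation between flanking doses. Not reached: highest tested concentration assigned. GI50 marks 50% less growth. The concentration for full growth arrest is given as TGI.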

On to `O=C(COc1ccc(/C=C2\Oc3ccccc3C2=O)cc1)Nc1nc2c(s1)CCCC2`, for which the GI50 is 46.9 µM in the test on SNB-19 CNS; 0.0164 µM in the test on IGROV1 ovarian; 48.4 µM with T-47D breast; 30.6 µM in the test with A498 renal; 0.709 µM with MDA-MB-231 breast; 51.2 µM in the test with OVCAR-5 ovarian. In addition, the GI50 in the test with MDA-MB-435 is 3.98 µM. For the same compound, the TGI was > 100 µM in the test on SNB-19 CNS; 0.0361 µM in the test on IGROV1 ovarian; > 100 µM in the test with T-47D breast; 98.2 µM with A498 renal; 6.38 µM in the test with MDA-MB-231 breast; > 100 µM in the test on OVCAR-5 ovarian. Moreover, in the test with MDA-MB-435, the TGI is > 100 µM.

As to `CC[C@H](CO)Nc1nc(NCc2ccccc2)n2ncc(C(C)C)c2n1`, the GI50 in the test with SNB-19 CNS was 1.44 µM; with IGROV1 ovarian it was 0.782 µM; with T-47D breast it was 2.48 µM; in the test on A498 renal, 1.25 µM; with MDA-MB-231 breast, 2.37 µM; in the test with OVCAR-5 ovarian, 1.85 µM. Further, the GI50 with MDA-MB-435 is 2.06 µM. For the same compound, the TGI was 12.3 µM with SNB-19 CNS; > 100 µM with IGROV1 ovarian; 13.3 µM with T-47D breast; 3.44 µM in the test on A498 renal; 9.47 µM in the test with MDA-MB-231 breast; 15 µM in the test on OVCAR-5 ovarian. For the same compound, the TGI in the test with MDA-MB-435 was determined as 10.1 µM.

Regarding `O=C(Nc1ccc(Cl)c(Cl)c1)O/N=C\c1c(Cl)ccc([N+](=O)[O-])c1Cl`, the GI50 with SNB-19 CNS was 7.6 µM; in the test with IGROV1 ovarian, 2.08 µM; in the test with T-47D breast it was 0.778 µM; in the test with A498 renal, 10.6 µM; with MDA-MB-231 breast it was 1.56 µM; in the test with OVCAR-5 ovarian, 1.86 µM. Moreover, in the test with MDA-MB-435, the GI50 was 1.9 µM. Also, the TGI turned out to be 20.6 µM in the test with SNB-19 CNS; 4.57 µM in the test with IGROV1 ovarian; 3.54 µM with T-47D breast; 22.8 µM in the test on A498 renal; 3.41 µM with MDA-MB-231 breast; 3.84 µM in the test with OVCAR-5 ovarian. The same compound gave a TGI with MDA-MB-435 of 4.43 µM.

Regarding `COc1ccc(OC)c(-c2c(C#N)c(N)nc(N3CCOCC3)c2C#N)c1`, the GI50 in the test with SNB-19 CNS was > 100 µM; with IGROV1 ovarian, 73.9 µM; in the test on T-47D breast, 45.1 µM; in the test on A498 renal, 52.6 µM; in the test with MDA-MB-231 breast, 40.3 µM; in the test on OVCAR-5 ovarian, > 100 µM. The GI50 in the test on MDA-MB-435 was > 100 µM. In addition, the TGI in the test with SNB-19 CNS, with IGROV1 ovarian, in the test with T-47D breast, in the test on A498 renal, in the test with MDA-MB-231 breast and in the test on OVCAR-5 ovarian was > 100 µM each time. For the same compound, in the test on MDA-MB-435, the TGI was > 100 µM.

Take `O=C(Nc1cccc(NC(=O)Nc2cc(C(F)(F)F)ccc2Cl)c1)Nc1cc(C(F)(F)F)ccc1Cl`: the GI50 in the test with SNB-19 CNS was 1.77 µM; in the test on IGROV1 ovarian, 3.52 µM; in the test on T-47D breast, 0.407 µM; with A498 renal it was 1.48 µM; in the test with MDA-MB-231 breast it was 2.3 µM; in the test with OVCAR-5 ovarian, 9.01 µM. Moreover, in the test on MDA-MB-435, the GI50 was 5.56 µM. Further, the TGI in the test with SNB-19 CNS is 14 µM; in the test with IGROV1 ovarian it was 18.8 µM; with T-47D breast it was 11.4 µM; in the test on A498 renal, 7.63 µM; in the test with MDA-MB-231 breast, 22 µM; in the test on OVCAR-5 ovarian it was > 100 µM. The TGI in the test on MDA-MB-435 was > 100 µM.

In the case of `O=C(/C=C/c1ccc([N+](=O)[O-])cc1)c1ccc2c3c(cccc13)CC2`, the GI50 is 3.36 µM with SNB-19 CNS; 4.36 µM in the test on IGROV1 ovarian; 1.57 µM in the test on T-47D breast; 11.6 µM in the test with A498 renal; > 52.8 µM in the test on MDA-MB-231 breast; > 64.2 µM with OVCAR-5 ovarian. The GI50 with MDA-MB-435 was 15.8 µM. Moreover, the TGI in the test on SNB-19 CNS is 17.4 µM; in the test on IGROV1 ovarian it was 53.2 µM; with T-47D breast it was > 24.8 µM; in the test with A498 renal it was 43.5 µM; in the test with MDA-MB-231 breast, > 100 µM; with OVCAR-5 ovarian it was > 100 µM. In addition, in the test with MDA-MB-435, the TGI is > 63.4 µM.

As for `Cc1c2c(nn1C)CSCc1cc(n(C)n1)CSc1cc(c3ccccc3c1)OCCCc1c(C(=O)O)n(C)c3c-2c(Cl)ccc13`, the GI50 in the test with SNB-19 CNS was 3.56 µM; with IGROV1 ovarian it was 3.99 µM; in the test with T-47D breast, 3.88 µM; in the test on A498 renal it was 4.01 µM; in the test with MDA-MB-231 breast, 5.32 µM; in the test on OVCAR-5 ovarian, 5.11 µM. For the same compound, in the test on MDA-MB-435, the GI50 was 2.45 µM. Besides, the TGI in the test with SNB-19 CNS is 13.9 µM; with IGROV1 ovarian, 14.5 µM; in the test on T-47D breast, 15.7 µM; in the test with A498 renal, 19 µM; in the test with MDA-MB-231 breast, 18.2 µM; in the test on OVCAR-5 ovarian, 17.6 µM. Also, the TGI in the test with MDA-MB-435 worked out at 14.3 µM.

Turning to `Cn1cc(C2=C(c3cccc(OCC(O)CO)c3)C(=O)NC2=O)c2ccccc21` (stereo not drawn), the GI50 in the test with SNB-19 CNS, with IGROV1 ovarian, in the test on T-47D breast, in the test on A498 renal, with MDA-MB-231 breast and in the test with OVCAR-5 ovarian was > 25 µM throughout. Further, the GI50 in the test with MDA-MB-435 is > 19.1 µM. In addition, the TGI with SNB-19 CNS, in the test with IGROV1 ovarian, in the test on T-47D breast, with A498 renal, in the test with MDA-MB-231 breast and in the test with OVCAR-5 ovarian was > 25 µM each time. The TGI in the test with MDA-MB-435 is > 25 µM.

Regarding `CS[C@]12C(=O)C[C@@]3(C)[C@@H](CC[C@]3(O)C(=O)CO)[C@@H]1CCC1=CC(=O)CC[C@@]12C`, the TGI with SNB-19 CNS, with IGROV1 ovarian, with T-47D breast, in the test on A498 renal, with MDA-MB-231 breast and in the test with OVCAR-5 ovarian was > 100 µM in each case. Also, the TGI in the test with MDA-MB-435 was > 100 µM.

On to `CCc1ccc(NC(=O)COC(=O)c2cc([N+](=O)[O-])ccc2Sc2nnnn2C)cc1`, for which the GI50 in the test on SNB-19 CNS is 16.5 µM; in the test with IGROV1 ovarian it was 24.3 µM; in the test on T-47D breast it was 18.5 µM; in the test with A498 renal it was 21.5 µM; in the test on MDA-MB-231 breast it was 23.6 µM; in the test with OVCAR-5 ovarian, 17.2 µM. The GI50 in the test on MDA-MB-435 is 3.42 µM. Besides, the TGI was 52.1 µM in the test on SNB-19 CNS; 95.7 µM in the test with IGROV1 ovarian; 82.4 µM with T-47D breast; 74.9 µM in the test on A498 renal; > 100 µM in the test on MDA-MB-231 breast; 76 µM in the test on OVCAR-5 ovarian. The TGI in the test on MDA-MB-435 was 21.4 µM.
